This experiment deals with T1, N-terminally GST-tagged human full length recombinant Mps-1 kinase (Homo sapiens, UniProt P33981).
T1 construct: N-terminally GST-tagged human full length recombinant Mps-1 kinase; purchased Invitrogen, Karslruhe, Germany PV4071
T1 sequence (P33981 1-857): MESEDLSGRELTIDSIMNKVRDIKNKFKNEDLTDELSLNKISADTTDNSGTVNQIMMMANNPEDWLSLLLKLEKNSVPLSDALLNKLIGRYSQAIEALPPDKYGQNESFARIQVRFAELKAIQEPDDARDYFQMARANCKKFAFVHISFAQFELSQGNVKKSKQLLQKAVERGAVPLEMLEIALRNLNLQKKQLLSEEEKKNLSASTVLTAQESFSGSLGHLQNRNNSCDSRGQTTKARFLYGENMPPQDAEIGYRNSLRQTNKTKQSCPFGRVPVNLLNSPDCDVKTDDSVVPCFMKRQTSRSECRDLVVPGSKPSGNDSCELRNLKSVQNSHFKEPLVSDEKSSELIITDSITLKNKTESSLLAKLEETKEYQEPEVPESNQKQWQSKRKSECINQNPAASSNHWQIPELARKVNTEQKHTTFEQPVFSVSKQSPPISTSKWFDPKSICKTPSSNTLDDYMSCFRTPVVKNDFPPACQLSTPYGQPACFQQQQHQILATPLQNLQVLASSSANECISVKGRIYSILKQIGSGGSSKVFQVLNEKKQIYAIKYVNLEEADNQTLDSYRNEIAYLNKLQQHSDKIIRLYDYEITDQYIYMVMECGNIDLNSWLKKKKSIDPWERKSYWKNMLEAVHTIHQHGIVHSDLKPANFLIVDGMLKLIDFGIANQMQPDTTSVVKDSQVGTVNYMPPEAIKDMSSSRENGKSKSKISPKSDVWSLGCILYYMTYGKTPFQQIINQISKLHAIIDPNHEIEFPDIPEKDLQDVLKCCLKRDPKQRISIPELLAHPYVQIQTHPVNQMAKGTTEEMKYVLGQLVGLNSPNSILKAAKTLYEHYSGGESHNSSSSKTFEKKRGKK
The experiment can be described thus: Mps-1 kinase assay (TR-FRET). It counts as biochemical. The following applies: Mps1 IC50 [nM], 10 μM ATP, 1 μM peptide substrate, 60 min at 22° C. In short, it runs like this:
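Inhibition of Mps-1 (N-terminal GST fusion, full length) toward a biotinylated peptide is read as Eu-to-XLent TR-FRET. Enzyme level, around 1 nM final, follows lot activity.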
In the case of `CC(C)CNc1cc(-c2ccc(C(F)(F)F)cc2)nn2c(-c3ccc(C(=O)NC4CC4)cc3)cnc12` [Example 123, N-cyclopropyl-4-{8-[(2-methylpropyl)amino]-6-[4-(trifluoromethyl)phenyl]imidazo[1,2-b]pyridazin-3-yl}benzamide], the IC50 came to 7.6 nM.

Take `CC(C)CNc1cc(-c2cccc(Cl)c2)nn2c(-c3ccc(C(=O)NC4CC4)cc3)cnc12` [Example 124, 4-{6-(3-Chlorophenyl)-8-[(2-methylpropyl)amino]imidazo[1,2-b]pyridazin-3-yl}-N-cyclopropylbenzamide]: the IC50 worked out at 4.7 nM.

For the compound `COc1cccc(-c2cc(NCC(C)C)c3ncc(-c4ccc(C(=O)NC5CC5)cc4)n3n2)c1` [Example 125, N-cyclopropyl-4-{6-(3-methoxyphenyl)-8-[(2-methylpropyl)amino]imidazo[1,2-b]pyridazin-3-yl}benzamide], the IC50 worked out at 3.8 nM.

Regarding `CC(=O)Nc1cccc(-c2cc(NCC(C)C)c3ncc(-c4ccc(C(=O)NC5CC5)cc4)n3n2)c1` [Example 126, 4-{6-[3-(Acetylamino)phenyl]-8-[(2-methylpropyl)amino]imidazo[1,2-b]pyridazin-3-yl}-N-cyclopropylbenzamide], the IC50 turned out to be 2 nM.

As to `CC(C)CNc1cc(-c2cc3ccccc3o2)nn2c(-c3ccc(C(=O)NC4CC4)cc3)cnc12` [Example 127, 4-{6-(1-Benzofuran-2-yl)-8-[(2-methylpropyl)amino]imidazo[1,2-b]pyridazin-3-yl}-N-cyclopropylbenzamide], the IC50 is 40 nM.

With `CC(C)CNc1cc(-c2cccc(F)c2)nn2c(-c3ccc(C(=O)NC4CC4)cc3)cnc12` [Example 128, N-cyclopropyl-4-{6-(3-fluorophenyl)-8-[(2-methylpropyl)amino]imidazo[1,2-b]pyridazin-3-yl}benzamide], the IC50 stood at 2.7 nM.

In the case of `COc1ccccc1-c1cc(NCC(C)C)c2ncc(-c3ccc(C(=O)NC4CC4)cc3)n2n1` [Example 129, N-cyclopropyl-4-{6-(2-methoxyphenyl)-8-[(2-methylpropyl)amino]imidazo[1,2-b]pyridazin-3-yl}benamide], the IC50 was found to be 3.3 nM.

On to `CC(C)CNc1cc(-c2ccc(-c3ccccc3)cc2)nn2c(-c3ccc(C(=O)NC4CC4)cc3)cnc12` [Example 130, 4-{6-(Biphenyl-4-yl)-8-[(2-methylpropyl)amino]imidazo[1,2-b]pyridazin-3-yl}-N-cyclopropylbenzamide], for which the IC50 is 5.9 nM.

As to `CC(C)CNc1cc(-c2cccc(Cl)c2Cl)nn2c(-c3ccc(C(=O)NC4CC4)cc3)cnc12` [Example 131, N-cyclopropyl-4-{6-(2,3-dichlorophenyl)-8-[(2-methylpropyl)amino]imidazo[1,2-b]pyridazin-3-yl}benzamide], the IC50 was determined as 10 nM.

Consider `CC(C)CNc1cc(-c2ccccc2F)nn2c(-c3ccc(C(=O)NC4CC4)cc3)cnc12` [Example 132, N-cyclopropyl-4-{6-(2-fluorophenyl)-8-[(2-methylpropyl)amino]imidazo[1,2-b]pyridazin-3-yl}benzamide], for which the IC50 is 1.5 nM.

As to `CC(C)CNc1cc(-c2ccc(CO)cc2)nn2c(-c3ccc(C(=O)NC4CC4)cc3)cnc12` [Example 133, N-cyclopropyl-4-{6-[4-(hydroxymethyl)phenyl]-8-[(2-methylpropyl)amino]imidazo[1,2-b]pyridazin-3-yl}benzamide], the IC50 is less than 1 nM.

With `CC(C)CNc1cc(-c2cccc(C(=O)NC(C)C)c2)nn2c(-c3ccc(C(=O)NC4CC4)cc3)cnc12` [Example 134, 3-{3-[4-(Cyclopropylcarbamoyl)phenyl]-8-[(2-methylpropyl)amino]imidazo[1,2-b]pyridazin-6-yl}-N-(propan-2-yl) benzamide], the IC50 was less than 1 nM.

As to `CC(C)CNc1cc(-c2cccc(C(=O)NC3CC3)c2)nn2c(-c3ccc(C(=O)NC4CC4)cc3)cnc12` [Example 135, N-cyclopropyl-3-{3-[4-(cyclopropylcarbamoyl)phenyl]-8-[(2-methylpropyl)amino]imidazo[1,2-b]pyridazin-6-yl}benzamide], the IC50 was less than 1 nM.

The values are drawn from US9255100B2 (BAYER INTELLECTUAL PROPERTY GMBH, priority 2010, dated 2016).
